Experimental data from US20120021939A1, “METHOD FOR PROFILING DRUG COMPOUNDS USING PROTEIN KINASE INHIBITORS” (priority 2009, published 2012).

Tested on: Renal Cell Carcinoma patients
Assay: Clinical efficacy of Bevacizumab treatment by body imaging (size reduction of the tumor)
Type: in vivo, human
Method: (§1) A study is performed to generate kinase inhibition profiles from tumor tissues derived from Renal Cell Carcinoma patients treated with the drug Bevacizumab. The tissue is derived from tumor resection performed before the Bevacizumab treatment is started. Bevacizumab is an antibody that blocks the triggering of the Vascular Endothelial Growth Factor Receptors (VEGFR), and thereby blocks the VEGFR signal transduction pathways.
The activity of the targeted VEGFR or VEGFR pathway is assessed in lysates prepared from Bevacizumab responding and non-responding patients. Clinical efficacy is determined using body imaging, thereby monitoring the size reduction of the tumor. In this assessment the lysates are profiled for activities of kinases on a peptide microarray comprising peptide substrates for protein tyrosine kinases. […] It is shown that peptides that are inhibited by these VEGFR kinase inhibitors, thus reporting VEGFR activity, are found in the microarray analyses of the Bevacizumab responding patients, and are not inhibited in the analyses of the patients not responding to Bevacizumab (Table 1). […] As these inhibition profiles are generated from tumor tissue derived from the patients before the treatment is started, these inhibition profiles are predictive for the clinical response of these patients. In patients with an active VEGFR pathway this drug is clinically active. In patients with no active VEGFR pathway no clinical effects are provided.
as §1, with “before” for “before the”, “thereby it” for “thereby”, “pathways. In patients with an active VEGFR pathway this drug is expected to be clinically active.” for “pathways.”
The activity of the alternative pathway is assessed in lysates prepared from Bevacizumab responding and non-responding patients. Clinical efficacy is determined using body imaging, thereby monitoring the size reduction of the tumor. In this assessment the lysates are profiled for activities of kinases on a peptide microarray comprising peptide substrates for protein tyrosine kinases. These kinase activity profiling tests are performed both in the presence and absence of an IGFR kinase inhibitor. […] It is shown that peptides that are inhibited by this IGFR kinase inhibitor, thus reporting IGFR activity, are found in the analyses of the Bevacizumab responding patients, and are not inhibited in the analyses of the patients not responding to Bevacizumab (Table 2). […] As these inhibition profiles are generated from tumor tissue derived from the patients before the treatment is started, these inhibition profiles are predictive for clinical response. Therefore, in patients with no active VEGFR pathway or with an alternative pathway allowing the tumor growth independent of the VEGFR signalling pathway, no clinical effect is obtained.

What does the source list for “Bevacizumab: antibody that blocks the triggering of the Vascular Endothelial Growth Factor Receptors (VEGFR); binds VEGF”?
Clinical response (Example 1, Patient 1, Renal Cell Carcinoma): Responder; Clinical response (Example 1, Patient 2, Renal Cell Carcinoma): Responder; Clinical response (Example 1, Patient 3, Renal Cell Carcinoma): Non Responder; Clinical response (Example 1, Patient 4, Renal Cell Carcinoma): Non Responder; Clinical response (Example 2, Patient 1, Renal Cell Carcinoma): Responder; Clinical response (Example 2, Patient 2, Renal Cell Carcinoma): Responder; Clinical response (Example 2, Patient 3, Renal Cell Carcinoma): Non Responder; Clinical response (Example 2, Patient 4, Renal Cell Carcinoma): Non Responder
